# Assay results from PMC10747112, “Triphenylphosphine Derivatives of Allylbenzenes Express Antitumor and Adjuvant Activity When Solubilized with Cyclodextrin-Based Formulations” (Pharmaceuticals, 2023).
# Marks after values point to notes of the source that are not given here.
# Assays:
# [1] = Dissociation constants of complexes with heparin by FTIR spectroscopy (Hill fit); type: physicochemical; conditions: calculated per one unit of heparin C12H19NO20S3, PBS
# Text: (§1) FTIR spectroscopy provides valuable data on the interaction of molecules, including those applicable to characterize the non-covalent complexes of apiol-PPh3 (and analogues) with cyclodextrins and heparin. In the FTIR spectra of apiol-PPh3 and analogues (Figure 3a), one characteristic is the bands of valence oscillations of the bonds C=C of the aromatic system (1450–1650 cm^−1) overlapping with the bands of deformation oscillations C-H (1400–1500 cm^−1). The intensity of these peaks increases with the formation of non-covalent complexes of apiol-PPh3 and its analogues with cyclodextrins and heparin due to the transition of the solid phase into solution. Linear fitting of the intensity of peaks in the FTIR spectra on the cyclodextrin or heparin concentration (Section 2.3) in Hill coordinates allows determining the dissociation constants of the complexes (Table 2). The interactions of triphenylphosphine derivatives of allylbenzenes with γ-CD is rather weak (Kd 10 mM values). In the case of M-β-CD, the dissociation constants reach millimolar values, which is sufficient to obtain soluble forms of adjuvants (Table 2). Thus, the β-cyclodextrin derivatives are more suitable in terms of size for inclusion of the adjuvants studied. […] Comparing the values of the dissociation constants of alkylbenzenes and PPh3-derivatives complexes with cyclodextrins, we observed that these Kd values are close, which means that it is the allylbenzene-fragment (of apiol-PPh3) that plunges into the cyclodextrin cavity, and the triphenylphosphine radical looks outward (Figure 3b), which would provide the implementation of mitochondrial targeting of the developed formulations.
# (§2) Non-covalent complexes of apiol, apiol-PPh3 and analogues with cyclodextrins (with different molar ratios) and heparin (15 kDa, 1:1 w/w) were obtained by adding solutions of cyclodextrins (100 mg/mL) or heparin (20 mg/mL) in PBS to apiol or apiol-PPh3 (or analogues) samples (2–3 mg). The excess of CDs or heparin was varied from 0.04 to 10 mol/mol. Then, mixtures were incubated for 1 h at 40 °C. Cyclodextrin or heparin are necessary for the solubilization of extremely poorly soluble compounds.
# (§3) The ATR-FTIR spectra of samples (Section 3.3) were acquired using a Bruker Tensor 27 spectrometer equipped with a liquid N2 cooled MCT (mercury cadmium telluride) detector. Samples were placed in a thermostatic cell BioATR-II with ZnSe ATR element (Bruker, Germany). FTIR spectra were recorded from 850 to 4000 cm^−1 with 1 cm^−1 spectral resolution; 50 scans were accumulated and averaged. Spectral data were processed using the Bruker software system Opus 8.2.28 (Bruker, Germany). The spectrum of cyclodextrin or heparin in the corresponding concentration was subtracted from the spectra of the complexes. […]
# [2] = test system: sea urchin embryos; assay: Phenotypic sea urchin embryo assay; type: in vivo; conditions: X in M-β-CD
# Text: Hemolytic activity and thrombogenicity are the primary parameters for evaluating the safety of medical formulations. The phenotypic sea urchin embryo assay developed by colleagues is a visual way to study the toxicity of formulations in vivo. The sea urchin and human genomes contain more than 7000 common genes, including orthologs associated with a number of human diseases. Therefore, sea urchins can be considered as a reliable and versatile model organism for studying the safety of new and existing cytotoxic formulations in vivo. Table 5 presents data on the % of erythrocyte hemolysis, the degree of whole blood thrombosis of apiol-PPh3 and analogues, and data of phenotypic sea urchin embryo assay. Thus, the non-toxicity of PPh3 derivatives of allylbenzenes for normal non-cancer cells, as well as the selectivity of action against cancer cells, is shown. The selectivity of cytotoxic action against cancer cells in comparison with normal cells can be explained by the fact that the PPh3- cation provides selective accumulation and reduction in the mitochondrial membrane potential of the transformed cancer cells. Cyclodextrin (M-β-CD) and heparin are non-toxic (and approved by the FDA for intravenous application).
# Adult sea urchins, Paracentrotus lividus L. (Echinidae), were collected from the Mediterranean Sea on the Cyprus coast and kept in an aerated seawater tank and were used to study the cleavage alteration of Apiol-PPh3 and analogues. Experiments with sea urchin embryos comply with the requirements of biological ethics.
# [3] = Dissociation constants of complexes with M-β-CD by FTIR spectroscopy (Hill fit); type: physicochemical; conditions: X-PPh3, complex 1:1 molar ratio, PBS
# Text: as §1, §2, §3
# [4] = Solubility by UV spectroscopy (PBS, with and without M-β-CD); type: physicochemical; conditions: for solubility: aqueous buffer, thermodynamic from solid
# Method: On the contrary, their complexes with M-β-CD are soluble, and a clear peak in the UV spectrum is pronounced (225 nm). Based on UV spectra data in the presence of M-β-CD, the increase in solubility of apiol-PPh3 and analogues by a second order of magnitude is observed (Table 2).
# The solubility of apiol and apiol-PPh3 (or analogues) in aqueous solution was determined by UV spectroscopy. UV spectra were recorded on the UltraSpec 2100 pro device (AmerSham Biosciences, Cambridge, UK) three times. The substances were dissolved in acetonitrile followed by recording the UV spectra at various cytostatics’ concentrations, and then we plotted calibration dependencies. Next, saturated solutions of substances in water were prepared, and the spectra of the aqueous solutions were recorded. Considering the extinction coefficients in water and acetonitrile to be approximately equal, the solubility was determined.
# [5] = Dissociation constants of complexes with γ-CD by FTIR spectroscopy (Hill fit); type: physicochemical; conditions: complex formed in molar excess of X approximately 1.2–1.4, PBS
# Text: as §1, §2, §3
SMILES,−lg Kd (X − Heparin) [1],Concentration Causing Changes in Sea Urchin Embryos [2],−lg Kd (X − M-β-CD) [3],Solubility in the Presence of 0.05 M M-β-CD [4],solubility [4],−lg Kd (X − γ-CD) [5]
COc1cc(CCC[P+](c2ccccc2)(c2ccccc2)c2ccccc2)c(OC)c(OC)c1OC [Allyltetramethoxybenzene-PPh3],3.2 ± 0.1,>4 *** μM,3.1 ± 0.2,17000 ± 5000 µM,70 ± 10 µM,2.1 ± 0.2
COc1cc(CCC[P+](c2ccccc2)(c2ccccc2)c2ccccc2)cc2c1OCO2 [Myristicin-PPh3],2.6 ± 0.2,>4 *** μM,3.0 ± 0.3,12000 ± 3000 µM,40 ± 5 µM,1.3 ± 0.1
COc1c(CCC[P+](c2ccccc2)(c2ccccc2)c2ccccc2)cc2c(c1OC)OCO2 [Dillapiol-PPh3],3.0 ± 0.3,>4 *** μM,2.6 ± 0.2,8000 ± 1000 µM,90 ± 10 µM,1.4 ± 0.3
COc1cc(CCC[P+](c2ccccc2)(c2ccccc2)c2ccccc2)c(OC)c2c1OCO2 [Apiol-PPh3],2.7 ± 0.2,>4 *** μM,2.9 ± 0.3,15000 ± 2000 µM,80 ± 10 µM,1.2 ± 0.2
